# Laboratory results published in patent publication US10472401B2, “Peptides and combination of peptides for use in immunotherapy against ovarian cancer and other cancers” (immatics biotechnologies GmbH, priority 2015, dated 2019).
# Legend:
# CD8+ T cells = experiment: In vitro immunogenicity: priming of CD8+ T cells with aAPCs loaded with peptide/MHC and anti-CD28, multimer staining; type: cell-based, human; conditions: for wells: positive wells; for Wells positive [%]: HLA-A*02 restricted peptides, percentage of positive wells (among evaluable)
# Description: In order to obtain information regarding the immunogenicity of the TUMAPs of the present invention, the inventors performed investigations using an in vitro T-cell priming assay based on repeated stimulations of CD8+ T cells with artificial antigen presenting cells (aAPCs) loaded with peptide/MHC complexes and anti-CD28 antibody.
# In order to perform in vitro stimulations by artificial antigen presenting cells loaded with peptide-MHC complex (pMHC) and anti-CD28 antibody, the inventors first isolated CD8+ T cells from fresh HLA-A*02 leukopheresis products via positive selection using CD8 microbeads (Miltenyi Biotec, Bergisch-Gladbach, Germany) of healthy donors obtained from the University clinics Mannheim, Germany, after informed consent.
# PBMCs and isolated CD8+ lymphocytes were incubated in T-cell medium (TCM) until use consisting of RPMI-Glutamax (Invitrogen, Karlsruhe, Germany) supplemented with 10% heat inactivated human AB serum (PAN-Biotech, Aidenbach, Germany), 100 U/ml Penicillin/100 μg/ml Streptomycin (Cambrex, Cologne, Germany), 1 mM sodium pyruvate (CC Pro, Oberdorla, Germany), 20 μg/ml Gentamycin (Cambrex). 2.5 ng/ml IL-7 (PromoCell, Heidelberg, Germany) and 10 U/ml IL-2 (Novartis Pharma, Nürnberg, Germany) were also added to the TCM at this step.
# Generation of pMHC/anti-CD28 coated beads, T-cell stimulations and readout was performed in a highly defined in vitro system using four different pMHC molecules per stimulation condition and 8 different pMHC molecules per readout condition.
# The purified co-stimulatory mouse IgG2a anti human CD28 Ab 9.3 (Jung et al., 1987) was chemically biotinylated using Sulfo-N-hydroxysuccinimidobiotin as recommended by the manufacturer (Perbio, Bonn, Germany). Beads used were 5.6 μm diameter streptavidin coated polystyrene particles (Bangs Laboratories, Illinois, USA).
# pMHC used for positive and negative control stimulations were A*0201/MLA-001 (peptide […] (SEQ ID NO. 664) from modified Melan-A/MART-1) and A*0201/DDX5-001 ([…] from DDX5, SEQ ID NO. 665), respectively.
# 800.000 beads/200 μl were coated in 96-well plates in the presence of 4×12.5 ng different biotin-pMHC, washed and 600 ng biotin anti-CD28 were added subsequently in a volume of 200 μl. Stimulations were initiated in 96-well plates by co-incubating […] CD8+ T cells with 2×10^5 washed coated beads in 200 μl TCM supplemented with 5 ng/ml IL-12 (PromoCell) for 3 days at 37° C. Half of the medium was then exchanged by fresh TCM supplemented with 80 U/ml IL-2 and incubating was continued for 4 days at 37° C. This stimulation cycle was performed for a total of three times. For the pMHC multimer readout using 8 different pMHC molecules per condition, a two-dimensional combinatorial coding approach was used as previously described (Andersen et al., 2012) with minor modifications encompassing coupling to 5 different fluorochromes. Finally, multimeric analyses were performed by staining the cells with Live/dead near IR dye (Invitrogen, Karlsruhe, Germany), CD8-FITC antibody clone SK1 (BD, Heidelberg, Germany) and fluorescent pMHC multimers. For analysis, a BD LSRII SORP cytometer equipped with appropriate lasers and filters was used. Peptide specific cells were calculated as percentage of total CD8+ cells. Evaluation of multimeric analysis was done using the FlowJo software (Tree Star, Oregon, USA). In vitro priming of specific multimer+ CD8+ lymphocytes was detected by comparing to negative control stimulations.
# Exemplary flow cytometry results after TUMAP-specific multimer staining for two peptides of the invention are shown in FIG. 3 together with corresponding negative controls.
# ovarian cancer = conditions: clinical studies; cited from earlier work
# HLA-A*02:01 = HLA-A*02:01 (Homo sapiens, UniProt P04439, D140Y/D185E/D98H/E176V/E277Q/G131W/G231S/I119V/I121R/I166T/I218V/L300P/L318F/N151K/N90K/P208A/P217A/Q86G/Q94H/R138H/R169H/T345S); experiment: MHC binding assay (UV-ligand exchange, ELISA of stabilized MHC complexes); conditions: MHC class I binding score; binding to HLA-A*02:01 ranged by peptide exchange yield (UV-ligand exchange, ELISA)
# Method in brief: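 Peptide-MHC complexes made by UV-ligand exchange, cleaving a UV-sensitive placeholder peptide and replacing it with the test peptide. Exchange yield measured by ELISA: streptavidin-captured monomers (diluted 100-fold, 1 h, 37 °C) detected with HRP anti-β2m and TMB, absorbance at 450 nm.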
# IMPDH2 = biological target: T1, IMPDH2 (Homo sapiens, UniProt P12268); conditions: patients with acute myeloid leukemia and chronic myeloid leukemia in blast crisis; cited from earlier work
# T1 construct: host or cells: patients with AML and CML in blast crisis
# ALDH5A1 = biological target: T2, ALDH5A1 (Homo sapiens, UniProt P51649); conditions: cited from earlier work
# T2 construct: host or cells: breast ductal carcinoma models
# T2 sequence (P51649 48-535): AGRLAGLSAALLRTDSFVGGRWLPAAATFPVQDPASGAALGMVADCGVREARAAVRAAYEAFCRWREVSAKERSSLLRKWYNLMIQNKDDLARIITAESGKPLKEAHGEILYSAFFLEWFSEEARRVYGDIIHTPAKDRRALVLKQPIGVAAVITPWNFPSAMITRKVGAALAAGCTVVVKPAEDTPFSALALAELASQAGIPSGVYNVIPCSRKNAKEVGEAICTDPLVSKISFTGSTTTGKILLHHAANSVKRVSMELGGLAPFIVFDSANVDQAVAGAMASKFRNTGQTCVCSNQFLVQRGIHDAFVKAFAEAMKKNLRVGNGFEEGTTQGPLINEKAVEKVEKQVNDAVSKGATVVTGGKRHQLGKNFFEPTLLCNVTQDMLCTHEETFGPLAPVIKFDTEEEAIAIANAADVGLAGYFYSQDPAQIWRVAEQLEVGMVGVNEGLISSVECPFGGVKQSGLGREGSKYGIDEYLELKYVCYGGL
# T1 sequence (P12268 2-514 limits assumed): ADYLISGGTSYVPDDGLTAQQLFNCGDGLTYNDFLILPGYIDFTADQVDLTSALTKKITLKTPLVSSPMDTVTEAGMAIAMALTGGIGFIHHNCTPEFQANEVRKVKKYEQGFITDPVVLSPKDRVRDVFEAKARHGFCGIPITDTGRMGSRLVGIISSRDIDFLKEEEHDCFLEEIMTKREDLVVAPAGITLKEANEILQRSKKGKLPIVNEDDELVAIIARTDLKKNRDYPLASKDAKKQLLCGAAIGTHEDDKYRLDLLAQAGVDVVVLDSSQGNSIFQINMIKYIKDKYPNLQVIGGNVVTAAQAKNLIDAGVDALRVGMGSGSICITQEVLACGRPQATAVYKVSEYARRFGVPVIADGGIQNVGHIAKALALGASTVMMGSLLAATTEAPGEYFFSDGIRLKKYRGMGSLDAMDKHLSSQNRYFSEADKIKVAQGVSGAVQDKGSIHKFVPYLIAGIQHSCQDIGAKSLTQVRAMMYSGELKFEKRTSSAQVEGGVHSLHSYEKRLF
Compound,Wells positive [%] (CD8+ T cells),Peptide exchange (HLA-A*02:01),further results
663 (KIQEMQHFL; listed as Homo sapiens) [compound 663],–,–,wells (CD8+ T cells; HLA class I peptides): + (<20% = +)
oregovomab,–,–,clinical results in ovarian cancer patients (ovarian cancer): promising results in phase II and III studies
ipilimumab,–,–,clinical results in ovarian cancer patients (ovarian cancer): significant anti-tumor effects in ovarian cancer patients
2 (SLLEADPFL; listed as Homo sapiens) [compound 2],″+″ (<20% = +),″+++″ (≥50% = +++),–
118 (KLIDNNINV; listed as Homo sapiens) [compound 118],″+″ (<20% = +),″+++″ (≥50% = +++),–
60 (SLTIDGIYYV; listed as Homo sapiens) [compound 60],″++++″ (> = 70% = ++++),″++++″ (≥75% = ++++),–
199 (ALQDVPLSSV; listed as Homo sapiens) [compound 199],″+″ (<20% = +),″+++″ (≥50% = +++),–
141 (YLDFSNNRL; listed as Homo sapiens) [compound 141],″+″ (<20% = +),″++″ (≥20% = ++),–
489 (KMWEELPEVV; listed as Homo sapiens) [compound 489],″+″ (<20% = +),″+++″ (≥50% = +++),–
NC(=O)c1csc([C@@H]2O[C@H](CO)[C@@H](O)[C@H]2O)n1 [tiazofurin],–,–,clinical response (IMPDH2): good clinical response
460 (AMLEKNYKL; listed as Homo sapiens) [compound 460],″+″ (<20% = +),″++++″ (≥75% = ++++),–
38 (FLLEDDIHVS; listed as Homo sapiens) [compound 38],″+″ (<20% = +),″+++″ (≥50% = +++),–
511 (FLDPYCSASV; listed as Homo sapiens) [compound 511],″+″ (<20% = +),″++″ (≥20% = ++),–
11 (KIFEMLEGV; listed as Homo sapiens) [compound 11],″+″ (<20% = +),″+++″ (≥50% = +++),–
247 (VLLPNDLLEKV; listed as Homo sapiens) [compound 247],″+″ (<20% = +),″+++″ (≥50% = +++),–
166 (YLNHLEPPV; listed as Homo sapiens) [compound 166],″++++″ (> = 70% = ++++),″+++″ (≥50% = +++),–
319 (SLEPQIQPV; listed as Homo sapiens) [compound 319],″+″ (<20% = +),″++″ (≥20% = ++),–
CCCC(CCC)C(=O)O [valproic acid],–,–,net proliferation of breast ductal carcinoma models (ALDH5A1): inhibit net proliferation
113 (GLLPTPLFGV; listed as Homo sapiens) [compound 113],″+″ (<20% = +),″+++″ (≥50% = +++),–
283 (ALYIGDGYVIHLA; listed as Homo sapiens) [compound 283],–,″+++″ (≥50% = +++),wells (CD8+ T cells; HLA class I peptides): + (<20% = +)

Compound,Wells positive [%] (CD8+ T cells),Peptide exchange (HLA-A*02:01),further results
NC(=O)c1cccc([C@@H]2O[C@H](CO)[C@@H](O)[C@H]2O)c1 [benzamide riboside],–,–,clinical response (IMPDH2): good clinical response
48 (ALAELYEDEV; listed as Homo sapiens) [compound 48],″+″ (<20% = +),″+++″ (≥50% = +++),–
652 (TLWYRAPEV; listed as Homo sapiens) [compound 652],–,–,"donors (CD8+ T cells; HLA class I peptides, positive donors): ++++ (> = 70% = ++++)"
659 (ILFPDIIARA; listed as Homo sapiens) [compound 659],–,–,wells (CD8+ T cells; HLA class I peptides): + (<20% = +)
catumaxomab,–,–,clinical results in ovarian cancer patients (ovarian cancer): promising results in phase II and III studies
3 (SLASKLTTL; listed as Homo sapiens) [compound 3],″+″ (<20% = +),″++++″ (≥75% = ++++),–
MORAb-003: anti-folate receptor alpha antibody,–,–,clinical results in ovarian cancer patients (ovarian cancer): only conferred limited clinical benefit to ovarian cancer patients
8 (FTLGNVVGMYL; listed as Homo sapiens) [compound 8],″+″ (<20% = +),″++++″ (≥75% = ++++),–
662 (KIQEILTQV; listed as Homo sapiens) [compound 662],–,–,wells (CD8+ T cells; HLA class I peptides): + (<20% = +)
603 (FLIEPEHVNTV; listed as Homo sapiens) [compound 603],″+″ (<20% = +),″++″ (≥20% = ++),–
499 (KIFDIDEAEEGV; listed as Homo sapiens) [compound 499],″+″ (<20% = +),″++″ (≥20% = ++),–
56 (KLYEGIPVLL; listed as Homo sapiens) [compound 56],″+″ (<20% = +),″++++″ (≥75% = ++++),–
443 (GLWEIENNPTV; listed as Homo sapiens) [compound 443],″+″ (<20% = +),″+++″ (≥50% = +++),–
bevacizumab,–,–,clinical results in ovarian cancer patients (ovarian cancer): appears to be advantageous
150 (RLWEEGEELEL; listed as Homo sapiens) [compound 150],″+″ (<20% = +),″+++″ (≥50% = +++),–
384 (ILFANPNIFV; listed as Homo sapiens) [compound 384],″+″ (<20% = +),″+++″ (≥50% = +++),–
36 (YVLEDLEVTV; listed as Homo sapiens) [compound 36],″+″ (<20% = +),″++″ (≥20% = ++),–
143 (LLLDITPEI; listed as Homo sapiens) [compound 143],″+″ (<20% = +),″++++″ (≥75% = ++++),–
79 (SLFIGEKAVLL; listed as Homo sapiens) [compound 79],″+″ (<20% = +),″+++″ (≥50% = +++),–
